Data on 1 compound can be found in US8901309B2, “Fused triazoles for the treatment or prophylaxis of mild cognitive impairment” (Takeda Pharmaceutical Company Limited, priority 2010, dated 2014).

For this test, the system named is Aβ42 in hippocampi of C57BL/6J mice. The experiment in a line: Hippocampal soluble Aβ42 ELISA in mice after oral administration. The class given is in vivo, mouse. To be noted: Mus musculus, po, 3 h, 10 mg/kg orally, hippocampi isolated 3 hours after administration, soluble Aβ42 by ELISA, read-out: Aβ42 production inhibitory activity (% inhibition). The method, then: Measurement of Amyloid β Production Inhibition Rate Using Primary Nerve Cell
C57BL/6J mice (7-10 weeks old) were purchased from CLEA Japan Inc. Mice were housed in groups and kept on a 12h-light; 12h-dark schedule. All mice were given ad libitum access to food and water.
Each test compound was reconstituted in solubilization buffer ([DMSO (Wako)]: [10% Cremophor (Nakarai)+30% polyethylene glycol 400 (Wako)+60% 2 mol/L Citrate buffer (Wako)]=1:9) and orally administrated at 10 mg/kg.
Hippocampi was isolated from animals, 3 hours after test compounds were orally administrated. Hippocampi were homogenized in ice-cold Tris-extraction buffer (50 mmol/L Tris-HCl, pH 7.2, 200 mmol/L sodium chloride, 2% protease-free bovine serum albumin, and 0.01% sodium merthiolate) containing protease inhibitor cocktails (Roche, Switzerland). After centrifugation at 15,000 rpm for 15 minutes, the supernatants were subjected to two-site sandwich ELISA to measure amount of soluble Aβ. Aβ42 was quantitated by two-site sandwich ELISA using BNT77, which recognizes Aβ11-28, as a capture antibody and BC05-HRP as a detector antibody, respectively.
For orientation: An ELISA detects its analyte on a solid surface through an enzyme-linked reagent.

In the case of `COc1cc(-c2nnn3c2CCCC3(Oc2cc(F)c(F)c(F)c2)C(C)(C)O)ccc1-c1cnc(C)o1` (stereo not shown) [Example 186, 2-{3-[3-methoxy-4-(2-methyl-1,3-oxazol-5-yl)phenyl]-7-(3,4,5-trifluorophenoxy)-4,5,6,7-tetrahydro[1,2,3]triazolo[1,5-a]pyridin-7-yl}propan-2-ol], the inhibition in vivo at 10 mg/kg was determined as 22%.
